Results as given in US5438048A, “Methylenebisphosphonic acid derivatives” (Leiras Oy, priority 1990, dated 1995).
pKi: −log10 of the molar value.

Columns and labels:
[1] = Inhibition of hydroxyapatite growth (calcium phosphate crystal formation and precipitation inhibiting activity); assay type: biochemical; parameters: key to the marks not given beside the values; settings: at 100 μM
[2] = Binding to hydroxyapatite (effect of bisphosphonates and their derivatives on hydroxyapatite)
mouse calvaria = assay: Parathyroid hormone stimulated bone resorption inhibition activity in vitro in mouse calvaria; assay type: cell-based
Procedure: (§1) In addition, the parathyroid hormone stimulated bone resorption inhibition activity in vitro in mouse calvaria, as well as inhibition of retinoid induced bone resorption in thyroparathyroidectomised rats in vivo were determined (Reynolds & Dingle (Calc Tiss Res 1970; 4:339, and Trechsel et al. (J Clin Invest 1987; 80:1679)) (Table 2).

[3] = system: retinoid induced bone resorption; assay: Inhibition of retinoid induced bone resorption in thyroparathyroidectomised rats in vivo; settings: 150 μmole/kg
Procedure: as §1

Compound | Inhibition of growth [1] | pKi [2] | Inhibition of resorption (%) (mouse calvaria; 100 μm) | Inhibition of resorption (%) (mouse calvaria; 1000 μm) | Inhibition of resorption (%) [3]
CC(C)OP(=O)(O)C(C)(O)P(=O)(O)O (stereo not shown) [(1-Hydroxyethylidene)bisphosphonic acid monoisopropyl ester] | +++ | 5.14 | – | – | –
CCCCC(O)(P(=O)(O)O)P(=O)(O)O [(1-Hydroxypentylidene)bisphosphonate, (1-Hydroxypentylidene)-bisphosphonate, reference compound] | – | – | 56% | – | –
CCCCC(O)(P(=O)(O)O)P(=O)(O)OC (stereo not shown) [(1-hydroxypentylidene)bisphosphonic acid monomethyl ester] | +++ | 4.93 | 7% | 47% | 52%
CC(O)(P(=O)(O)O)P(=O)(O)O [Etidronate, reference compound] | – | 6.05 | – | – | –
CCCCC(O)(P(=O)(O)O)P(=O)(O)OC(C)C (stereo not shown) [(1-hydroxypentylidene)bisphosphonic acid monoisopropyl ester] | ++ | 4.81 | – | – | –
O=P(O)(O)C(Cl)(Cl)P(=O)(O)O [Clodronate, reference compound] | +++ | 5.89 | – | – | –
